# Measured values reported in US5300629A, “Bactericidal and/or bacteriostatic peptides isolated from hemolymph of honeybees” (Plant Genetic Systems, N.V., priority 1987, dated 1994).
# Where a SMILES comes first, the peptide text is derived from it.
# Key:
# Format in all cases: cell-based
# [1] = test system: Erwinia carotovora var atroseptica LMG 2385; assay: Minimal inhibitory concentration in liquid culture; settings: 200 μl rich medium, 10^4 log-phase bacteria
# E. coli NCTC 9001 = assay: Bactericidal activity, method not stated; settings: lyophilized apidaecins resuspended in PBS
# [2] = test system: Corynebacterium michiganense pv. michiganense NCPPB 1573; assay: Minimal inhibitory concentration in liquid culture; settings: 200 μl rich medium, 10^4 log-phase bacteria, + = no inhibition at maximal value
# Experimental: (§1) In addition the exact concentration was determined precisely by amino-acid analysis and an equal sample of natural Bee 6b was prepared, allowing to compare the bactericidal activity of both natural and synthetic apidaecins by means of growth inhibition assays in liquid cultures (see mat & Meth.). The minimal inhibitory concentrations (μg/ml) were determined in liquid culture : 200 μl of a rich medium (trypticase soy broth or nutrient broth) was inoculated with 10^4 log-phase bacteria. Peptide concentrations ranged between 0 and 200 μg/ml. The values express μg/ml; when no inhibition was noticed the maximal values are given (+200 μg/ml or +50 μg/ml). All peptides were chemically synthesized, except for bee 6b which is purified from bee lymph.
# [3] = test system: Xanthomonas campestris pv. vesicatoria LMG 905; assay: Minimal inhibitory concentration in liquid culture; settings: 200 μl rich medium, 10^4 log-phase bacteria, + = no inhibition at maximal value
# Experimental: as §1
# Shigella flexneri CP 87 = assay: Minimal inhibitory concentration in liquid culture; settings: 200 μl rich medium, 10^4 log-phase bacteria
# Experimental: as §1
# [4] = test system: Corynebacterium insidiosum NCPPB 1109; assay: Minimal inhibitory concentration in liquid culture; settings: 200 μl rich medium, 10^4 log-phase bacteria
# Experimental: as §1
# [5] = test system: Xanthomonas campestris pv. campestris A 902; assay: Minimal inhibitory concentration in liquid culture; settings: 200 μl rich medium, 10^4 log-phase bacteria, + = no inhibition at maximal value
# [6] = test system: Salmonella typhimurium ATCC 23565; assay: Minimal inhibitory concentration in liquid culture; settings: 200 μl rich medium, 10^4 log-phase bacteria
# [7] = test system: Erwinia carotovora var carotovora NCPPB 312; assay: Minimal inhibitory concentration in liquid culture; settings: 200 μl rich medium, 10^4 log-phase bacteria
# [8] = test system: Rhizobium meliloti ZB 314; assay: Minimal inhibitory concentration in liquid culture; settings: 200 μl rich medium, 10^4 log-phase bacteria
# [9] = test system: Agrobactierium tumefaciens DSM 3129; assay: Minimal inhibitory concentration in liquid culture; settings: 200 μl rich medium, 10^4 log-phase bacteria
# [10] = test system: Bacillus megaterium QB 1551; assay: Minimal inhibitory concentration in liquid culture; settings: 200 μl rich medium, 10^4 log-phase bacteria, + = no inhibition at maximal value
# [11] = test system: Pseudomonas solanacearum ATCC 11696; settings: 200 μl rich medium, 10^4 log-phase bacteria
# Salmonella Newport CD 94 = assay: Minimal inhibitory concentration in liquid culture; settings: 200 μl rich medium, 10^4 log-phase bacteria
# [12] = test system: Pseudomonas syringae pv. tabaci NCPPB 1237; assay: Minimal inhibitory concentration in liquid culture; settings: 200 μl rich medium, 10^4 log-phase bacteria
# [13] = test system: Erwinia salicis NCPPB 2530; assay: Minimal inhibitory concentration in liquid culture; settings: 200 μl rich medium, 10^4 log-phase bacteria
# [14] = test system: Pseudomonas syringae pv. tomato NCPPB 1106; assay: Minimal inhibitory concentration in liquid culture; settings: 200 μl rich medium, 10^4 log-phase bacteria
# [15] = test system: Bacillus subtilis NRRL-B-237; assay: Minimal inhibitory concentration in liquid culture; settings: 200 μl rich medium, 10^4 log-phase bacteria, + = no inhibition at maximal value
# Bacillus alvei LMG 6922 = assay: Minimal inhibitory concentration in liquid culture; settings: 200 μl rich medium, 10^4 log-phase bacteria, + = no inhibition at maximal value
# [16] = test system: Escherichia coli NCTC 9001; assay: Minimal inhibitory concentration in liquid culture; settings: 200 μl rich medium, 10^4 log-phase bacteria
# [17] = test system: Pseudomonas syringae pv. maculicola NCPPB 1776; assay: Minimal inhibitory concentration in liquid culture; settings: 200 μl rich medium, 10^4 log-phase bacteria
# [18] = test system: Citrobacter freundii ATCC 8090; assay: Minimal inhibitory concentration in liquid culture; settings: 200 μl rich medium, 10^4 log-phase bacteria
# [19] = test system: Rhizobium meliloti ZB 314; assay: Inhibition zone assay; design: key: --: "-" means that no inhibition has been found; settings: I and B 10 ul, L 5 ug
# [20] = test system: Bordetella bronchiseptica ATCC 19395; assay: Inhibition zone assay; design: key: --: "-" means that no inhibition has been found; settings: I and B 10 ul, L 5 ug
# [21] = test system: Corynebacterium fascians NCPPB 1488; assay: Inhibition zone assay; design: key: --: "-" means that no inhibition has been found; settings: I and B 10 ul, L 5 ug
# [22] = test system: Rhodococcus equi ATCC 25729; assay: Inhibition zone assay; settings: I and B 10 ul, L 5 ug
# [23] = test system: Proteus morganii CuETM 77-83; assay: Inhibition zone assay; design: key: --: "-" means that no inhibition has been found; settings: I and B 10 ul, L 5 ug
# [24] = test system: Azospirillum lipoferum ATCC 29707; assay: Inhibition zone assay; design: key: --: "-" means that no inhibition has been found; settings: I and B 10 ul, L 5 ug
# [25] = test system: Flavobacterium devorans NRRL B-54; assay: Inhibition zone assay; design: key: --: "-" means that no inhibition has been found; settings: I and B 10 ul, L 5 ug
# [26] = test system: Listeria monocytogenes B5; assay: Inhibition zone assay; design: key: --: "-" means that no inhibition has been found; settings: L 5 ug
# [27] = test system: Serratia liquefaciens DSM 30125; assay: Inhibition zone assay; design: key: --: "-" means that no inhibition has been found; settings: I 10 ul, L 5 ug
# [28] = test system: Janthinobacterium lividum Sneath HB; assay: Inhibition zone assay; design: key: --: "-" means that no inhibition has been found; settings: I and B 10 ul, L 5 ug
# [29] = test system: Pseudomonas paucimobilis ATCC 29837; assay: Inhibition zone assay; design: key: --: "-" means that no inhibition has been found; settings: L 5 ug
# [30] = test system: Agrobacterium radiobacter ATCC 19358; assay: Inhibition zone assay; design: key: --: "-" means that no inhibition has been found; settings: I and B 10 ul, L 5 ug
# [31] = test system: Enterobacter agglomerans Gilardi 1081; assay: Inhibition zone assay; design: key: --: "-" means that no inhibition has been found; settings: I and B 10 ul, L 5 ug
# [32] = test system: Bacillus subtilis NRRL B-237; assay: Inhibition zone assay; design: key: --: "-" means that no inhibition has been found; settings: I and B 10 ul, L 5 ug
# [33] = test system: Serratia plymuthica ATCC 183; assay: Inhibition zone assay; design: key: --: "-" means that no inhibition has been found; settings: I and B 10 ul, L 5 ug
# [34] = test system: Staphylococcus hominis STH B3; assay: Inhibition zone assay; design: key: --: "-" means that no inhibition has been found; settings: L 5 ug
# [35] = test system: Serratia fonticola ATCC 298449; assay: Inhibition zone assay; design: key: --: "-" means that no inhibition has been found; settings: I and B 10 ul, L 5 ug
# [36] = test system: Bacillus megaterium QMB 1551; assay: Inhibition zone assay; settings: I and B 10 ul, L 5 ug
# [37] = test system: Xanthomonas campestris pv. graminis NCPPB 2700; assay: Inhibition zone assay; design: key: --: "-" means that no inhibition has been found; settings: I and B 10 ul, L 5 ug
# [38] = test system: Bacillus thuringiensis DSM 3131; assay: Inhibition zone assay; design: key: --: "-" means that no inhibition has been found; settings: I and B 10 ul, L 5 ug
# [39] = test system: Micrococcus lysodeikticus LMG 4050; assay: Inhibition zone assay; settings: I and B 10 ul, L 5 ug
# [40] = test system: Xanthomonas campestris pv. vesicatoria XV82-4; assay: Inhibition zone assay; design: key: --: "-" means that no inhibition has been found; settings: I and B 10 ul, L 5 ug
# [41] = test system: Pseudomonas cepacia ATCC 25416; assay: Inhibition zone assay; design: key: --: "-" means that no inhibition has been found; settings: I and B 10 ul, L 5 ug
# [42] = test system: Erwinia carotovora var. atroseptica NCPPB 549; assay: Inhibition zone assay; design: key: --: "-" means that no inhibition has been found; settings: I and B 10 ul, L 5 ug
# [43] = test system: Pseudomonas acidovorans CuETM 83-109; assay: Inhibition zone assay; design: key: --: "-" means that no inhibition has been found; settings: I and B 10 ul, L 5 ug
# [44] = test system: Xanthomonas campestris pv. oryzae IRN 235; design: key: --: "-" means that no inhibition has been found
# [45] = test system: Klebsiella aerogenes 1961 E; assay: Inhibition zone assay; design: key: --: "-" means that no inhibition has been found; settings: I and B 10 ul, L 5 ug
# [46] = test system: Rhizobium phaseoli CIAT 899; assay: Inhibition zone assay; design: key: --: "-" means that no inhibition has been found; settings: I and B 10 ul, L 5 ug
# [47] = test system: Corynebacterium insidiosum NCPPB 1109; assay: Inhibition zone assay; settings: I and B 10 ul, L 5 ug
# Experimental: Whole lymph or purified components, resuspended in PBS to a final volume equal to the starting material (heated lymph), was applied in 3 mm wells on agar plates seeded with the test organisms. Antibacterial activity was determined by measuring the growth-inhibition zones (in mm).
# [48] = test system: Agrobacterium tumefaciens DSM 3129; assay: Inhibition zone assay; design: key: --: "-" means that no inhibition has been found; settings: I and B 10 ul, L 5 ug
# [49] = test system: Agrobacterium rhizogenes ATCC 11325; assay: Inhibition zone assay; design: key: --: "-" means that no inhibition has been found; settings: I and B 10 ul, L 5 ug
# [50] = test system: Pseudomonas aureofaciens CCEB 518; assay: Inhibition zone assay; design: key: --: "-" means that no inhibition has been found; settings: I and B 10 ul, L 5 ug
# [51] = test system: Erwinia salicis NCPPB 2530; assay: Inhibition zone assay; design: key: --: "-" means that no inhibition has been found; settings: I and B 10 ul, L 5 ug
compound,measurement,setting,value
CC[C@H](C)[C@H](NC(=O)[C@@H]1CCCN1C(=O)[C@H](CCCNC(=N)N)NC(=O)[C@H](CC(N)=O)NC(=O)[C@H](CC(N)=O)NC(=O)CN)C(=O)N[C@@H](Cc1ccc(O)cc1)C(=O)N[C@H](C(=O)N1CCC[C@H]1C(=O)N[C@@H](CCC(N)=O)C(=O)N1CCC[C@H]1C(=O)N[C@@H](CCCNC(=N)N)C(=O)N1CCC[C@H]1C(=O)N1CCC[C@H]1C(=O)N[C@@H](Cc1c[nH]cn1)C(=O)N1CCC[C@H]1C(=O)N[C@@H](CCCNC(=N)N)C(=O)N[C@@H](CC(C)C)C(=O)O)[C@@H](C)CC [Apid II] (H-GNNRPIYIPQPRPPHPRL-OH),minimal inhibitory concentration,[1],0.5 µg/mL
same,bactericidal activity,E. coli NCTC 9001,possessed a bactericidal activity
same,minimal inhibitory concentration,[2],> 50 µg/mL
same,minimal inhibitory concentration,[3],> 50 µg/mL
same,minimal inhibitory concentration,Shigella flexneri CP 87,0.1 µg/mL
same,minimal inhibitory concentration,[4],100 µg/mL
same,minimal inhibitory concentration,[5],50 µg/mL
same,minimal inhibitory concentration,[6],0.1 µg/mL
same,minimal inhibitory concentration,[7],2.5 µg/mL
same,minimal inhibitory concentration,[8],0.02 µg/mL
same,minimal inhibitory concentration,[9],0.2 µg/mL
same,minimal inhibitory concentration,[10],100 µg/mL
same,minimal inhibitory concentration,[11],10 µg/mL
same,minimal inhibitory concentration,Salmonella Newport CD 94,0.2 µg/mL
same,minimal inhibitory concentration,[12],1 µg/mL
same,minimal inhibitory concentration,[13],0.02 µg/mL
same,minimal inhibitory concentration,[14],0.1 µg/mL
same,minimal inhibitory concentration,[15],> 200 µg/mL
same,minimal inhibitory concentration,Bacillus alvei LMG 6922,> 200 µg/mL
same,minimal inhibitory concentration,[16],0.2 µg/mL
same,minimal inhibitory concentration,[17],0.5 µg/mL
same,minimal inhibitory concentration,[18],0.2 µg/mL
"chicken lysozyme: hen egg white lysozyme, comparison [reference compound]",diameter of growth-inhibition zone,[19],--
same,diameter of growth-inhibition zone,[20],--
same,diameter of growth-inhibition zone,[21],--
same,diameter of growth-inhibition zone,[22],4 mm
same,diameter of growth-inhibition zone,[23],--
same,diameter of growth-inhibition zone,[24],--
same,diameter of growth-inhibition zone,[25],--
same,diameter of growth-inhibition zone,[26],--
same,diameter of growth-inhibition zone,[27],--
same,diameter of growth-inhibition zone,[28],--
same,diameter of growth-inhibition zone,[29],--
same,diameter of growth-inhibition zone,[30],--
same,diameter of growth-inhibition zone,[31],--
same,diameter of growth-inhibition zone,[32],--
same,diameter of growth-inhibition zone,[33],--
same,diameter of growth-inhibition zone,[34],--
same,diameter of growth-inhibition zone,[35],--
same,diameter of growth-inhibition zone,[36],6 mm
same,diameter of growth-inhibition zone,[37],--
same,diameter of growth-inhibition zone,[38],--
same,diameter of growth-inhibition zone,[39],9 mm
same,diameter of growth-inhibition zone,[40],--
same,diameter of growth-inhibition zone,[41],--
same,diameter of growth-inhibition zone,[42],--
same,diameter of growth-inhibition zone,[43],--
same,diameter of growth-inhibition zone,[44],--
same,diameter of growth-inhibition zone,[45],--
same,diameter of growth-inhibition zone,[46],--
same,diameter of growth-inhibition zone,[47],6 mm
same,diameter of growth-inhibition zone,[48],--
same,diameter of growth-inhibition zone,[49],--
same,diameter of growth-inhibition zone,[50],--
same,diameter of growth-inhibition zone,[51],--
